In patent publication US20050148631A1, “Amino heterocyclyl inhibitors of 11-beta-hydroxy steroid dehydrogenase type 1” (AGOURON PHARMACEUTICALS, INC., priority 2003, published 2005) one finds inhibition and Ki data, which are given here for 50 compounds.

Test [1] deals with T1, 11β-hsd-1 enzyme (Homo sapiens, UniProt P28845). Description: 11β-hsd-1 enzyme assay, percentage of inhibition (3H-cortisone to cortisol, radio-HPLC). The class given is biochemical. Conditions: compound at 0.1 uM; read-out: % inh @ 0.1 uM.
T1 sequence (P28845 whole entry, species assumed): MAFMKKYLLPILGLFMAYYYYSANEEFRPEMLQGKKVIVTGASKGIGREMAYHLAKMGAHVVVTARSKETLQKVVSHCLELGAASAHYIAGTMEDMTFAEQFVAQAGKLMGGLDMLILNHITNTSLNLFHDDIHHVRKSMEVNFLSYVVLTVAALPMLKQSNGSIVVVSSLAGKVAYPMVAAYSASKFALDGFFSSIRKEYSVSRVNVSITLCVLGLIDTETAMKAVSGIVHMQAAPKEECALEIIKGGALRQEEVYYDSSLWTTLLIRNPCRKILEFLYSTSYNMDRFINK
The target in test [2] is T1, 11β-hsd-1 enzyme. The test can be described thus: 11β-hsd-1 enzyme assay, Kiapp determination (3H-cortisone to cortisol, radio-HPLC). The class given is biochemical. Conditions: apparent Ki, 11β-hsd-1 enzyme; read-out: Ki app.

For the compound `Cc1cccc(NS(=O)(=O)c2ccc(-c3ccc(CC(C)C)cc3)cc2C)n1` [Example 210], at 11β-hsd-1 enzyme [1], the inhibition at 0.1 µM worked out at 74%. The Ki on 11β-hsd-1 enzyme [2] is 0.047 µM.
The matching figures for `Cc1cccc(NS(=O)(=O)c2ccc(-c3ccc4c(c3)CCO4)cc2C)n1` [Example 211]: 81% and 0.023 µM.
For `Cc1cccc(NS(=O)(=O)c2ccc(-c3ccccc3Cl)c(C)c2)n1` [Example 212], the inhibition at 0.1 µM on 11β-hsd-1 enzyme [1] came to 75%. Moreover, the Ki on 11β-hsd-1 enzyme [2] stood at 0.047 µM.
Taken in the same sequence, the figures for `Cc1cccc(NS(=O)(=O)c2ccc(-c3cccc(Cl)c3)c(C)c2)n1` [Example 213] were 77% and 0.031 µM.
The matching figures for `Cc1cccc(NS(=O)(=O)c2ccc(-c3ccccc3)c(C)c2)n1` [Example 214]: 72% and 0.036 µM.
As to `Cc1ccc(-c2ccc(S(=O)(=O)Nc3cccc(C)n3)cc2C)cc1` [Example 215], at 11β-hsd-1 enzyme [1], the inhibition at 0.1 µM turned out to be 90%. Further, the Ki on 11β-hsd-1 enzyme [2] turned out to be 0.016 µM.
In the case of `COc1ccc(-c2ccc(S(=O)(=O)Nc3cccc(C)n3)cc2C)cc1` [Example 216], the inhibition at 0.1 µM on 11β-hsd-1 enzyme [1] was found to be 73%. Further, at 11β-hsd-1 enzyme [2], the Ki was 0.043 µM.
Taken in the same sequence, the figures for `Cc1cccc(NS(=O)(=O)c2ccc(-c3ccc(Cl)cc3)c(C)c2)n1` [Example 217] were 95% and 0.005 µM.
The matching figures for `Cc1cccc(NS(=O)(=O)c2ccc(-c3ccc(F)c(Cl)c3)c(C)c2)n1` [Example 219]: 68% and 0.017 µM.
The matching figures for `Cc1cccc(NS(=O)(=O)c2ccc(-c3ccc(Cl)cc3Cl)c(C)c2)n1` [Example 221]: 87% and 0.018 µM.
For `Cc1cccc(NS(=O)(=O)c2ccc(-c3cc(Cl)cc(Cl)c3)c(C)c2)n1` [Example 222], the inhibition at 0.1 µM at 11β-hsd-1 enzyme [1] worked out at 90%. In addition, the Ki at 11β-hsd-1 enzyme [2] turned out to be 0.01 µM.
The matching figures for `Cc1cccc(NS(=O)(=O)c2ccc(-c3ccc(CO)cc3)c(C)c2)n1` [Example 223]: 79% and 0.32 µM.
Taken in the same sequence, the figures for `Cc1cccc(NS(=O)(=O)c2ccc(-c3cccc(F)c3)c(C)c2)n1` [Example 224] were 93% and 0.019 µM.
Taken in the same sequence, the figures for `Cc1cccc(NS(=O)(=O)c2ccc(-c3cc(F)cc(F)c3)c(C)c2)n1` [Example 225] were 28% and 0.016 µM.
`Cc1cccc(NS(=O)(=O)c2ccc(-c3cccc(CO)c3)c(C)c2)n1` [Example 226]: the inhibition at 0.1 µM at 11β-hsd-1 enzyme [1] is 94%. On 11β-hsd-1 enzyme [2], the Ki is 0.46 µM.
The matching figures for `Cc1cccc(NS(=O)(=O)c2ccc(-c3cc(F)c(F)c(F)c3)c(C)c2)n1` [Example 228]: 74% and 0.029 µM.
Taken in the same sequence, the figures for `CCOc1ccccc1-c1ccc(S(=O)(=O)Nc2cccc(C)n2)cc1C` [Example 232] were 78% and 0.66 µM.
The matching figures for `Cc1cccc(NS(=O)(=O)c2ccc(-c3ccc(C(C)C)cc3)c(C)c2)n1` [Example 233]: 78% and 0.11 µM.
As to `Cc1cccc(NS(=O)(=O)c2ccc(-c3cccc(C(C)C)c3)c(C)c2)n1` [Example 236], on 11β-hsd-1 enzyme [1], the inhibition at 0.1 µM was 81%. At 11β-hsd-1 enzyme [2], the Ki stood at 0.11 µM.
Take `Cc1cccc(NS(=O)(=O)c2ccc(-c3cccc(F)c3F)c(C)c2)n1` [Example 238]: the inhibition at 0.1 µM on 11β-hsd-1 enzyme [1] stood at 82%. The Ki on 11β-hsd-1 enzyme [2] was 0.027 µM.
The matching figures for `Cc1cccc(NS(=O)(=O)c2ccc(-c3ccc(Cl)cc3)cc2)n1` [Example 249, 4′-Chloro-biphenyl-4-sulfonic acid (6-methyl-pyridin-2-yl)-amide]: 96% and 0.0058 µM.
Taken in the same sequence, the figures for `Cc1cccc(NS(=O)(=O)c2ccc(-c3ccc(N4CCOCC4)cc3)cc2)n1` [Example 251] were 83.6% and 0.029 µM.
`Cc1cccc(NS(=O)(=O)c2ccc(-c3ccc(F)cc3C)cc2)n1` [Example 253]: on 11β-hsd-1 enzyme [1], the inhibition at 0.1 µM turned out to be 79.3%. The Ki at 11β-hsd-1 enzyme [2] was determined as 0.0334 µM.
On to `CCOc1ccc(-c2ccc(S(=O)(=O)Nc3cccc(C)n3)cc2)c(C)c1` [Example 254], for which, on 11β-hsd-1 enzyme [1], the inhibition at 0.1 µM stood at 85.4%. Moreover, on 11β-hsd-1 enzyme [2], the Ki is 0.0224 µM.
Taken in the same sequence, the figures for `COc1ccc(-c2ccc(S(=O)(=O)Nc3cccc(C)n3)cc2)cn1` [Example 256] were 89.3% and 0.0349 µM.
Taken in the same sequence, the figures for `Cc1cccc(NS(=O)(=O)c2ccc(-c3ccncc3)cc2)n1` [Example 257] were 74.7% and 0.12 µM.
The matching figures for `COc1cc(S(=O)(=O)Nc2cccc(C)n2)ccc1-c1ccc(C#N)cc1` [Example 258]: 100% and 0.0059 µM.
Regarding `Cc1cccc(NS(=O)(=O)c2ccc(-c3ccc(C#N)cc3)nc2)n1` [Example 267, 6-(4-Cyano-phenyl)-pyridine-3-sulfonic acid (6-methyl-pyridin-2-yl)-amide], on 11β-hsd-1 enzyme [1], the inhibition at 0.1 µM was found to be 81.8%. Also, the Ki at 11β-hsd-1 enzyme [2] was found to be 0.0226 µM.
Take `Cc1cccc(NS(=O)(=O)c2ccc(-c3ccc(F)cc3)nc2)n1` [Example 268]: at 11β-hsd-1 enzyme [1], the inhibition at 0.1 µM stood at 70%. Besides, the Ki on 11β-hsd-1 enzyme [2] worked out at 0.04 µM.
For the compound `COc1cc(-c2ccc(S(=O)(=O)Nc3cccc(C)n3)cc2)ccc1C#N` [Example 270, 4′-Cyano-3′-methoxy-biphenyl-4-sulfonic acid (6-methyl-pyridin-2-yl)-amide], at 11β-hsd-1 enzyme [1], the inhibition at 0.1 µM was 94.8%. The Ki at 11β-hsd-1 enzyme [2] was 0.0107 µM.
Taken in the same sequence, the figures for `Cc1cccc(NS(=O)(=O)c2ccc(-c3ccc(C(F)(F)F)cn3)cc2)n1` [Example 271] were 87.7% and 0.02 µM.
The matching figures for `Cc1cccc(NS(=O)(=O)c2ccc(-c3ccc(C#N)cc3C(F)(F)F)cc2)n1` [Example 272]: 100% and 0.012 µM.
In the case of `Cc1cccc(NS(=O)(=O)c2ccc(-c3ccc(C#N)c(C)c3)cc2)n1` [Example 273], at 11β-hsd-1 enzyme [1], the inhibition at 0.1 µM came out at 95.5%. Moreover, the Ki at 11β-hsd-1 enzyme [2] amounted to 0.0053 µM.
The matching figures for `Cc1cccc(NS(=O)(=O)c2ccc(-c3ccc(C#N)c(Cl)c3)cc2)n1` [Example 274]: 94.4% and 0.0035 µM.
The matching figures for `Cc1cccc(NS(=O)(=O)c2ccc(-c3ccc(C#N)cc3)cc2C)n1` [Example 277, 4′-Cyano-3-methyl-biphenyl-4-sulfonic acid (6-methyl-pyridin-2-yl)-amide]: 100% and below 0.001 µM.
For the compound `Cc1cccc(NS(=O)(=O)c2ccc(-c3ccc(F)cc3)cc2C)n1` [Example 279], on 11β-hsd-1 enzyme [1], the inhibition at 0.1 µM turned out to be 100%. Further, at 11β-hsd-1 enzyme [2], the Ki stood at 0.0045 µM.
Taken in the same sequence, the figures for `Cc1cccc(NS(=O)(=O)c2ccc(-c3ccc(F)cc3)c(C)c2)n1` [Example 280] were 91% and 0.015 µM.
With `Cc1cccc(NS(=O)(=O)c2ccc(-c3ccc(C#N)cc3)c(C)c2)n1` [Example 281], the inhibition at 0.1 µM on 11β-hsd-1 enzyme [1] was 92.9%. In addition, the Ki on 11β-hsd-1 enzyme [2] was 0.01 µM.
Taken in the same sequence, the figures for `Cc1cc(-c2ccc(S(=O)(=O)Nc3cccc(N)n3)cc2)ccc1C#N` [Example 282, 4′-Cyano-3′-methyl-biphenyl-4-sulfonic acid (6-amino-pyridin-2-yl)-amide] were 100% and below 0.001 µM.
Taken in the same sequence, the figures for `Cc1cccc(NS(=O)(=O)c2ccc(-c3ccc(C#N)cc3)cc2F)n1` [Example 283, 4′-Cyano-3-fluoro-biphenyl-4-sulfonic acid (6-methyl-pyridin-2-yl)-amide] were 100% and 0.0057 µM.
Taken in the same sequence, the figures for `Cc1cccc(NS(=O)(=O)c2ccc(-c3ccc(C#N)cc3)c(F)c2)n1` [Example 284, 4′-Cyano-2-fluoro-biphenyl-4-sulfonic acid (6-methyl-pyridin-2-yl)-amide] were 100% and 0.0034 µM.
Regarding `Cc1cccc(NS(=O)(=O)c2ccc(-c3ccc(C#N)cc3)c(C(F)(F)F)c2)n1` [Example 285, 4′-Cyano-2-trifluoromethyl-biphenyl-4-sulfonic acid (6-methyl-pyridin-2-yl)-amide], the inhibition at 0.1 µM at 11β-hsd-1 enzyme [1] turned out to be 100%. Moreover, the Ki at 11β-hsd-1 enzyme [2] was determined as 0.0029 µM.
The matching figures for `Cc1cccc(NS(=O)(=O)c2ccc(-c3ccc(C#N)cc3)cc2O)n1` [Example 286, 4′-Cyano-3-hydroxy-biphenyl-4-sulfonic acid (6-methyl-pyridin-2-yl)-amide]: 100% and 0.0062 µM.
The matching figures for `N#Cc1ccc(-c2ccc(S(=O)(=O)Nc3ccc4ccccc4n3)cc2)nc1` [Example 288]: 91% and 0.011 µM.
Taken in the same sequence, the figures for `N#Cc1ccc(-c2ccc(S(=O)(=O)Nc3ccc4ccccc4n3)cc2)cn1` [Example 289] were 73.9% and 0.068 µM.
As for `N#Cc1ccc(-c2ccc(S(=O)(=O)Nc3ccc4ccccc4n3)cn2)cc1` [Example 290, 6-(4-Cyano-phenyl)-pyridine-3-sulfonic acid quinolin-2-ylamide], the inhibition at 0.1 µM on 11β-hsd-1 enzyme [1] is 100%. Also, on 11β-hsd-1 enzyme [2], the Ki turned out to be 0.012 µM.
The matching figures for `O=S(=O)(Nc1ccc2ccccc2n1)c1ccc(-c2ccc(F)cc2)nc1` [Example 291]: 92.5% and 0.027 µM.
For the compound `Cc1cc(-c2ccc(S(=O)(=O)Nc3ccc4ccccc4n3)cn2)ccc1F` [Example 292], the inhibition at 0.1 µM at 11β-hsd-1 enzyme [1] is 72.4%. For the same compound, the Ki on 11β-hsd-1 enzyme [2] was determined as 0.049 µM.
Taken in the same sequence, the figures for `N#Cc1ccc(-c2ccc(S(=O)(=O)Nc3cccc(C4CC4)n3)cn2)cc1` [Example 293, 6-(4-Cyano-phenyl)-pyridine-3-sulfonic acid (6-cyclopropyl-pyridin-2-yl)-amide] were 100% and 0.0064 µM.
Taken in the same sequence, the figures for `O=S(=O)(Nc1cccc(C2CC2)n1)c1ccc(-c2ccc(C(F)(F)F)cc2)nc1` [Example 294] were 94.6% and 0.0073 µM.
